Laboratory results as given in US20180207228A1, “PEPTIDE COMBINATIONS AND USES THEREOF FOR TREATING GRASS ALLERGY” (ALK-Abelló A/S, priority 2015, published 2018).
Where no end group is shown, it is not given here.

What was measured:
[1] = Bio-stability in 25% human serum (T½, degradation pattern by UHPLC and MS); format: in vitro ADME
Experimental: The supernatant was analyzed by UHPLC-UV/VIS and the peak-height/peak-area of the original peptide was determined at each time point. T½ of the original peptide was estimated by plotting Ln (peak-area) as a function of time. […] Therefore, the degradation pattern of each peptide was additionally studied. Extra peaks compared to the peak of the original peptide in the chromatogram were notified as potential degradation products. To assess the degradation pattern of each peptide and identify degradation products, the test samples were also investigated by mass spectroscopy (MS). Some peptides, for example, may be prone to cleavage by endopeptidases resulting in short peptide fragments unfit for binding to the HLA binding site, whereas other peptides may be more prone to cleavage by exopeptidases which may cleave one or more amino acid residues from the N or C-terminal end of the peptide resulting in a conserved HLA binding. […] Therefore, it is important to look at both the MS data and functional data to estimate the extent and effect of the degradation.

[2] = test system: grass pollen allergic donor derived T cell lines; experiment: Dose response titration in T cell proliferation assay; format: cell-based, human; details: single peptides, FIG. 21
Experimental: The dose-response relationship was tested by measuring the percentage of donor response (i.e. the percentage of donor coverage) in concentrations of 2.0, 0.1, 0.005 and 0.00025 μg/ml for the peptide combinations and in concentrations of 2.0, 0.2, 0.02 and 0.002 μg/ml for single peptides. The donor response was determined using T cell proliferation data as described in Example 3.
Relative magnitude value for a peptide or a peptide combination was calculated as percentage of highest T cell response to an allergen or a mix, by the same donor. In this way, allergen or peptide combination with highest magnitude of T cell response gets a value of 100 and T cell response magnitude of remaining peptides/peptide combinations are normalized or calculated relative to 100, for example Relative magnitude=100*(T cell response magnitude of peptide or combination/Highest T cell response in a donor). Relative magnitude were calculated mainly on Phl p 1. For donors non reactive to Phl p 1, Phl p 5 was used as reference
The donors were selected by seeking to maximize the HLA class II diversity in the donor cohort.
For peptide combinations, two set-ups were used:
A) Concentrations of 2.0, 0.1, 0.005 and 0.00025 μg/ml were tested on a set of T cell lines derived from 9 grass pollen allergic donors (same experiment as the data shown in FIG. 7b.).
B) Concentrations of 2.0, 0.066, 0.0022 and 0.00007 μg/ml were used on a set of T cell lines derived from 18 grass pollen allergic donors (same set as the donors used for testing of single peptides as described above).
Relative magnitude value for a peptide or a peptide combination was calculated as percentage of highest T cell response to an allergen or a mix, by the same donor. In this way, allergen or peptide combination with highest magnitude of T cell response gets a value of 100 and T cell response magnitude of remaining peptides/peptide combinations are normalized or calculated relative to 100, for example Relative magnitude=100*(T cell response magnitude of peptide or combination/Highest T cell response in a donor). […]

Substance | <−3aa (%) ([1]; degradation details at 60 min) | Sum full length or −1aa to −3aa ([1]; degradation details at 60 min) [%] | −1aa to −3aa (%) ([1]; degradation details at 60 min) | half-life ([1]; male, 37° C.) [h] | remaining at 1 h ([1]; male, degradation details at 60 min, read-out: Full length (%)) [%] | average relative magnitude calculated over all donors [2]
AYESYKFIPALEAAVKQAYA-OH [peptide 285] | 0 | 100 | 34 | 1.37 | 66 | –
STGGAYESYKFIPALEAAVK-OH [compound 71] | – | – | – | – | – | high
